Tests used:
morningglory [1] = assay: Test A pre-/postemergence herbicide test; format: in vivo, Ipomoea spp.
Procedure, shortened: (§1)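 Plants are held in greenhouse about ten days after treatment, then compared with untreated controls and scored 0 (no effect) to 100 (complete control). Preemergence dosing is a directed soil spray on sown sandy loam; postemergence dosing is spray to runoff at 2–10 cm height.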

morningglory [2] = assay: Test B pre-/postemergence herbicide test; format: in vivo, Ipomoea coccinea
Procedure, shortened: (§2)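 Species tested were Echinochloa crus-galli, Ipomoea coccinea, Xanthium strumarium and Oryza sativa, treated both before emergence and at the 1- to 4-leaf stage; rice and barnyardgrass were also tested under flooding at 2 leaves. Greenhouse incubation lasted 13–15 days before visual 0–100 scoring.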

barnyardgrass [3] = assay: Test B flooded paddy test; format: in vivo, Echinochloa crus-galli; conditions: 1000 g ai/ha, visual rating, scale 0 to 100 (0 no effect, 100 complete control), 13 to 15 days
Procedure, shortened: (§3)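 Plants grow to 1- to 4-leaf stage (2–18 cm) for postemergence spraying, or to 2-leaf stage for the paddy test. Formulated compound is applied. Greenhouse holding lasts 13–15 days. Response is scored visually relative to controls, 0 no effect to 100 complete control; a dash means no result.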

[4] = tested on: small flower umbrella sedge; assay: Test B flooded paddy test; format: in vivo, Cyperus difformis; conditions: 1000 g ai/ha, visual rating, scale 0 to 100 (0 no effect, 100 complete control), 13 to 15 days
Procedure, shortened: as §3

cocklebur = assay: Test B pre-/postemergence herbicide test; format: in vivo, Xanthium strumarium
Procedure, shortened: as §2

blackgrass = assay: Test B postemergence herbicide test; format: in vivo, Alopecurus myosuroides; conditions: scale 0 (no effect) to 100 (complete control)
Procedure, shortened: as §3

velvetleaf [5] = assay: Test B pre-/postemergence herbicide test; format: in vivo, Abutilon theophrasti
Procedure, shortened: (§4)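 Plants compared with untreated controls 13–15 days post-treatment and given a visual 0–100 injury score. Applications: preemergence to seeds; postemergence at 1- to 4-leaf (2–18 cm); paddy species flooded, 2-leaf stage. Vehicle non-phytotoxic, surfactant included.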

rice = assay: Test B flooded paddy test; format: in vivo, Oryza sativa; conditions: 1000 g ai/ha, visual rating, scale 0 to 100 (0 no effect, 100 complete control), 13 to 15 days
Procedure, shortened: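 Formulated test chemicals went onto postemergence plants measuring 2 to 18 cm, at one to four leaves. For the paddy assay, species had reached two leaves. Scoring took place 13–15 days later by eye, relative to untreated plants, using 0 for no effect up to 100 for full control.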

wild oat = assay: Test B postemergence herbicide test; format: in vivo, Avena fatua; conditions: scale 0 (no effect) to 100 (complete control)
Procedure, shortened: as §3

velvetleaf [6] = assay: Test A pre-/postemergence herbicide test; format: in vivo, Abutilon theophrasti
Procedure, shortened: as §1

corn = assay: Test B pre-/postemergence herbicide test; format: in vivo, Zea mays
Procedure, shortened: as §4

Surinam grass = assay: Test B pre-/postemergence herbicide test; format: in vivo, Urochloa decumbens
Procedure, shortened: as §4

redroot pigweed = assay: Test A pre-/postemergence herbicide test; format: in vivo, Amaranthus retroflexus
Procedure, shortened: as §1

large crabgrass [7] = assay: Test B pre-/postemergence herbicide test; format: in vivo, Digitaria sanguinalis
Procedure, shortened: as §4

barnyardgrass [8] = assay: Test B pre-/postemergence herbicide test; format: in vivo, Echinochloa crus-galli
Procedure, shortened: as §2

barnyardgrass [9] = assay: Test A pre-/postemergence herbicide test; format: in vivo, Echinochloa crus-galli
Procedure, shortened: as §1

giant foxtail [10] = assay: Test A pre-/postemergence herbicide test; format: in vivo, Setaria faberi
Procedure, shortened: as §1

giant foxtail [11] = assay: Test B pre-/postemergence herbicide test; format: in vivo, Setaria faberi
Procedure, shortened: as §4

large crabgrass [12] = assay: Test A pre-/postemergence herbicide test; format: in vivo, Digitaria sanguinalis
Procedure, shortened: as §1

pigweed = assay: Test B pre-/postemergence herbicide test; format: in vivo, Amaranthus retroflexus
Procedure, shortened: as §4

ducksalad = assay: Test B flooded paddy test; format: in vivo, Heteranthera limosa; conditions: 1000 g ai/ha, visual rating, scale 0 to 100 (0 no effect, 100 complete control), 13 to 15 days
Procedure, shortened: as §3

wheat = assay: Test B postemergence herbicide test; format: in vivo, Triticum aestivum; set-up: key to Wheat plant response rating: 0 = no effect, 100 = complete control; conditions: scale 0 (no effect) to 100 (complete control)
Procedure, shortened: as §3

lambsquarters = assay: Test B pre-/postemergence herbicide test; format: in vivo, Chenopodium album
Procedure, shortened: as §4

[13] = Postemergence, 500 g ai/ha, 0 to 100 scale, 0 no effect, 100 complete control
[14] = Postemergence, 2000 g ai/ha, 0 to 100 scale, 0 no effect, 100 complete control
[15] = Preemergence, 500 g ai/ha, visual rating, 0 to 100 scale (0 no effect, 100 complete control)
[16] = Preemergence, 2000 g ai/ha, visual rating, 0 to 100 scale (0 no effect, 100 complete control)
[17] = 500 g ai/ha, visual rating 0-100, 0 no effect, 100 complete control, preemergence
[18] = Postemergence, 500 g ai/ha, visual rating after 13 to 15 days, scale 0 (no effect) to 100 (complete control)
[19] = postemergence, 125 g ai/ha, visual rating, scale 0 (no effect) to 100 (complete control)
[20] = preemergence, 125 g ai/ha, 0 to 100 scale, 0 is no effect, 100 is complete control
[21] = Postemergence, 500 g ai/ha, visual rating after 13 to 15 days
[22] = postemergence, 125 g ai/ha, visual rating

## CC(=NO)c1cc(NC(=O)c2cc(C(C)(C)C)nn2C)ccc1F [Compound 109]
Morningglory [1]; [13]
  Morningglory plant response rating: 25
Morningglory [1]; [14]
  Plant response rating, Morningglory: 40
Morningglory [1]; [15]
  Morningglory plant response rating: 35
Morningglory [1]; [16]
  Morningglory plant response rating: 45
Morningglory [2]; [17]
  Plant response rating, Morningglory: 100
Morningglory [2]; [18]
  Plant response rating, Morningglory: 10
Morningglory [2]; [19]
  Morningglory plant response rating: 0
Morningglory [2]; [20]
  Plant response rating, Morningglory: 10
Barnyardgrass [3]
  Barnyardgrass plant response rating: 80
[4]
  Sedge, Umbrella plant response rating: 60
cocklebur; [17]
  Plant response rating, Cocklebur: 20
cocklebur; [18]
  Plant response rating, Cocklebur: 70
cocklebur; [19]
  Cocklebur plant response rating: 30
cocklebur; [20]
  Plant response rating, Cocklebur: 0
blackgrass; [21]
  Plant response rating, Blackgrass: 20
blackgrass; [22]
  Blackgrass plant response rating: 0
Velvetleaf [5]; [17]
  Plant response rating, Velvetleaf: 60
Velvetleaf [5]; [18]
  Plant response rating, Velvetleaf: 20
Velvetleaf [5]; [19]
  Velvetleaf plant response rating: 10
Velvetleaf [5]; [20]
  Plant response rating, Velvetleaf: 20
rice
  Rice plant response rating: 70
Wild oat; [21]
  Plant response rating, Oat, Wild: 30
Wild oat; [22]
  Oat, Wild plant response rating: 20
Velvetleaf [6]; [13]
  Velvetleaf plant response rating: 25
Velvetleaf [6]; [14]
  Plant response rating, Velvetleaf: 45
Velvetleaf [6]; [15]
  Velvetleaf plant response rating: 15
Velvetleaf [6]; [16]
  Velvetleaf plant response rating: 25
corn; [17]
  Plant response rating, Corn: 10
corn; [18]
  Plant response rating, Corn: 20
corn; [19]
  Corn plant response rating: 10
corn; [20]
  Plant response rating, Corn: 0
Surinam grass; [17]
  Plant response rating, Surinam Grass: 80
Surinam grass; [18]
  Plant response rating, Surinam Grass: 20
Surinam grass; [19]
  Surinam Grass plant response rating: 10
Surinam grass; [20]
  Plant response rating, Surinam Grass: 60
Redroot pigweed; [13]
  Pigweed plant response rating: 100
Redroot pigweed; [14]
  Plant response rating, Pigweed: 100
Redroot pigweed; [15]
  Pigweed plant response rating: 75
Redroot pigweed; [16]
  Pigweed plant response rating: 100
Large crabgrass [7]; [17]
  Plant response rating, Crabgrass, Large: 100
Large crabgrass [7]; [18]
  Plant response rating, Crabgrass, Large: 10
Large crabgrass [7]; [19]
  Crabgrass, Large plant response rating: 10
Large crabgrass [7]; [20]
  Plant response rating, Crabgrass, Large: 80
Barnyardgrass [8]; [17]
  Plant response rating, Barnyardgrass: 100
Barnyardgrass [8]; [18]
  Plant response rating, Barnyardgrass: 20
Barnyardgrass [8]; [19]
  Barnyardgrass plant response rating: 10
Barnyardgrass [8]; [20]
  Plant response rating, Barnyardgrass: 80
Barnyardgrass [9]; [13]
  Barnyardgrass plant response rating: 75
Barnyardgrass [9]; [14]
  Plant response rating, Barnyardgrass: 90
Barnyardgrass [9]; [15]
  Barnyardgrass plant response rating: 85
Barnyardgrass [9]; [16]
  Barnyardgrass plant response rating: 90
Giant foxtail [10]; [13]
  Foxtail, Giant plant response rating: 55
Giant foxtail [10]; [14]
  Plant response rating, Foxtail, Giant: 90
Giant foxtail [10]; [15]
  Foxtail, Giant plant response rating: 80
Giant foxtail [10]; [16]
  Foxtail, Giant plant response rating: 90
Giant foxtail [11]; [17]
  Plant response rating, Foxtail, Giant: 100
Giant foxtail [11]; [18]
  Plant response rating, Foxtail, Giant: 20
Giant foxtail [11]; [19]
  Foxtail, Giant plant response rating: 20
Giant foxtail [11]; [20]
  Plant response rating, Foxtail, Giant: 70
Large crabgrass [12]; [13]
  Crabgrass, Large plant response rating: 20
Large crabgrass [12]; [14]
  Plant response rating, Crabgrass, Large: 55
Large crabgrass [12]; [15]
  Crabgrass, Large plant response rating: 80
Large crabgrass [12]; [16]
  Crabgrass, Large plant response rating: 95
pigweed; [17]
  Plant response rating, Pigweed: 100
pigweed; [18]
  Plant response rating, Pigweed: 70
pigweed; [19]
  Pigweed plant response rating: 20
pigweed; [20]
  Plant response rating, Pigweed: 30
ducksalad
  Ducksalad plant response rating: 90
wheat; [21]
  Plant response rating, Wheat: 20
wheat; [22]
  Wheat plant response rating: 10
lambsquarters; [17]
  Plant response rating, Lambsquarters: 90
lambsquarters; [18]
  Plant response rating, Lambsquarters: 20
lambsquarters; [19]
  Lambsquarters plant response rating: 10
lambsquarters; [20]
  Plant response rating, Lambsquarters: 20

From patent publication US20060069132A1, “Azolecarboxamide herbicides” (priority 2004, published 2006)
